Assay results published in paper PMC1989143, “An Expanded Set of Amino Acid Analogs for the Ribosomal Translation of Unnatural Peptides” (PLoS ONE, 2007).

Tests used:
[1] = biological target: T1, ThrRS (Escherichia coli, UniProt P0A8M3); experiment: tRNA aminoacylation competition assay, MALDI-TOF MS; format: biochemical; conditions: 50000 µM; 50 µM natural Thr (Table 3), 6 mM ATP, 17 mM MgCl2, E. coli total tRNA, pH 7.4, 37 °C; competitive
T1 construct: gene thrS; His-tagged, recombinant, purified
Text: tRNA aminoacylation competition assay, MALDI-TOF MS on ThrRS

[2] = biological target: T2, PheRS (Escherichia coli, UniProt P08312); experiment: as above; format: biochemical; conditions: 5000 µM; 5 µM natural Phe (Table 3), 6 mM ATP, 17 mM MgCl2, E. coli total tRNA, pH 7.4, 37 °C; competitive
T2 construct: gene pheS; His-tagged, recombinant, purified; wild-type enzyme; with Phenylalanine--tRNA ligase beta subunit
Text: tRNA aminoacylation competition assay, MALDI-TOF MS on PheRS

T2 sequence (P08312 whole entry): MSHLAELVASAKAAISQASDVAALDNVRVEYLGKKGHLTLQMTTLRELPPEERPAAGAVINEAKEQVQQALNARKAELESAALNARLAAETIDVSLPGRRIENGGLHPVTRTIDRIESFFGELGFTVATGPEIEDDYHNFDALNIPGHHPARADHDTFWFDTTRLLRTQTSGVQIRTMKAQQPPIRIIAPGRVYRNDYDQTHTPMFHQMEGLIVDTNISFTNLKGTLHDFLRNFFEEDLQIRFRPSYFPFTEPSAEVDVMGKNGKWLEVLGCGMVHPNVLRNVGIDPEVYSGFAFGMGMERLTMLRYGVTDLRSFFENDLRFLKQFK
T2 sequence (P07395 whole entry partner): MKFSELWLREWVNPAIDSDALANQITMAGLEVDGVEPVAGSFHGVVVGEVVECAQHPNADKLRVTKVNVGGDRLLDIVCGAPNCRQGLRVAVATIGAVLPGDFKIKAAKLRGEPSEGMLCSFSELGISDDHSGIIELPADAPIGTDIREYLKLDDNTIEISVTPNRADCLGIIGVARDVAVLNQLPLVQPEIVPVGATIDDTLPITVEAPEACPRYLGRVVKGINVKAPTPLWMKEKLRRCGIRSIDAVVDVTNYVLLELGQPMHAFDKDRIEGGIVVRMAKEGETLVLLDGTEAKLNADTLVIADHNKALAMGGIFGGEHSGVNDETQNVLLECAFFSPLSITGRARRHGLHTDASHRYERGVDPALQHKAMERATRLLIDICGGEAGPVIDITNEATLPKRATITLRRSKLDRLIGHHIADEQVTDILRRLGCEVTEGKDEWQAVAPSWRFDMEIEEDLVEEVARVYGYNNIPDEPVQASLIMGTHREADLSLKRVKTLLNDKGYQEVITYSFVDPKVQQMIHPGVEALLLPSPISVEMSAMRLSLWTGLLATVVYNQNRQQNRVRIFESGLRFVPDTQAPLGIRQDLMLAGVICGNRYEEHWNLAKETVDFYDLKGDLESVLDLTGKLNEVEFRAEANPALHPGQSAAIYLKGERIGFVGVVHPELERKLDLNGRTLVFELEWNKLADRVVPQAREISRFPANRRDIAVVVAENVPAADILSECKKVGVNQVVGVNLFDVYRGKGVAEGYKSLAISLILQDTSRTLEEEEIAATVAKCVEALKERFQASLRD
T1 sequence (P0A8M3 whole entry): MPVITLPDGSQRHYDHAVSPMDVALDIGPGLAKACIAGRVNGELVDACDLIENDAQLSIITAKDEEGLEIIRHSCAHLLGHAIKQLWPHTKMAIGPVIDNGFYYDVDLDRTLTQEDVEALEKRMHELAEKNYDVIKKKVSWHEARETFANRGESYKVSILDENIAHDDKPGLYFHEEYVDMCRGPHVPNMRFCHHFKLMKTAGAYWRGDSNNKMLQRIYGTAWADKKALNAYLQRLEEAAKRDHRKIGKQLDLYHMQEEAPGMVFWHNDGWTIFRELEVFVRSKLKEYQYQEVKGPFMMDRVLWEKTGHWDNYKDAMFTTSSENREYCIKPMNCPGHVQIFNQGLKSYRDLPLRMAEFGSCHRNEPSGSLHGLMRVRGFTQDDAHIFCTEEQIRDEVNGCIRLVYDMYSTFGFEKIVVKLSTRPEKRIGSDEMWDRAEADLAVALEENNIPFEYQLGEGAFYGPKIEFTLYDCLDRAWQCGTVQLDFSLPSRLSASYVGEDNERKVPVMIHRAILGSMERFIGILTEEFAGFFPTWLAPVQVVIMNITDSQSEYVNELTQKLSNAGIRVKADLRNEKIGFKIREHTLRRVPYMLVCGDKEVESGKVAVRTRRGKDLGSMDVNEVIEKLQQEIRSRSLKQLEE

Structure (SMILES) | % Inhibition ^b [1] | % Inhibition ^b [2]
CCC(O)C(N)C(=O)O (racemic) [P5, DL-β-hydroxy norvaline] | 92 (range 2.9) % | –
NC(Cc1ccccc1F)C(=O)O (centres unmarked) [A5, 2-fluoro Phe] | – | 78 (range 2.1) %
